One assay concerns the target T1, h P2X2/3 (Homo sapiens, UniProt P56373+Q9UBL9).
T1 sequence (P56373 1-397): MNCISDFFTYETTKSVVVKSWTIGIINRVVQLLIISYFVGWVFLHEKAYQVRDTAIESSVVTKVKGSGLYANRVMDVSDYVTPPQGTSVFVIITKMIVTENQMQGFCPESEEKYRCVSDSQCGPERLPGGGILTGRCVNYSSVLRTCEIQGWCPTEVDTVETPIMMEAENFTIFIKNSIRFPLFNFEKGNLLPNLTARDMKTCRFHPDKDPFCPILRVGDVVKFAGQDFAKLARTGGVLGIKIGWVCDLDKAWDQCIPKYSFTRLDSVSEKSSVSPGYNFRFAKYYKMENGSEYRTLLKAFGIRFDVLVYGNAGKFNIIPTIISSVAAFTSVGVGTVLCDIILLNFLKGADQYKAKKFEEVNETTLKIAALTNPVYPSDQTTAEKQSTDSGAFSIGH
T1 sequence (Q9UBL9 1-471): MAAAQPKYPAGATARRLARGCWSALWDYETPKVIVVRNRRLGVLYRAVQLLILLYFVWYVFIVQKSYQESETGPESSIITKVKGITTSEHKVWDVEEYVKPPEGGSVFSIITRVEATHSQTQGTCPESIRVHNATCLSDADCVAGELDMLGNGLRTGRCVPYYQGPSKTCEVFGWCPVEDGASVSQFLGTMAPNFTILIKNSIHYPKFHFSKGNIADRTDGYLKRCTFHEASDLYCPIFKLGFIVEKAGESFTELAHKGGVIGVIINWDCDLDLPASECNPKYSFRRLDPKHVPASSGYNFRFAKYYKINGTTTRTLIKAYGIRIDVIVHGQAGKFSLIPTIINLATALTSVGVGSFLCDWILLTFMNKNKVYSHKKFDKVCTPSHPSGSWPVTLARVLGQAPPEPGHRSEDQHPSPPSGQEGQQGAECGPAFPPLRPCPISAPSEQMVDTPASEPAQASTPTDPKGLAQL
Description: In vitro electrophysiology assay for P2X2/3 (same protocol, 10 μM ATP as agonist). In kind it is cell-based. Particulars: Table 7, range of activity. As to the method:
Cells expressing P2X3 receptors were grown according to standard practice and maintained at 37° C. in a 5% humidified CO2 atmosphere. The cells were seeded into T175 flask 2 days prior to the day of the assay and dissociated from the flasks using TrypLE when grown to confluence of 80-90%. The dissociated cells were resuspended in serum free media at a cell density of 3×10^6 cells/ml and loaded onto the Sophion Qube automated patch-clamp system. The extracellular assay buffer contained 145 mM NaCl, 4 mM KCl, 2 mM CaCl2), 1 mM MgCl2, 10 mM HEPES, and 10 mM glucose at pH 7.4. The intracellular assay solution contained 140 mM CsF, 10 mM NaCl, 10 mM EGTA, 10 mM HEPES at pH 7.2. Agonist stock solutions were prepared in H2O and diluted in bath solution prior to use. All antagonists were prepared as 10 mM stock solutions in DMSO and diluted in bath solution prior to use. All experiments were performed under the whole-cell patch clamp configuration at room temperature with 384 individual cells being voltage clamped at −60 mV simultaneously on the Sophion Qube instrument. Two baseline responses were established with the application of α,β-MeATP (800 nM), with the subsequent agonist applications being washed out using extracellular assay buffer containing 0.5 U/ml apyrase. Following the second agonist application, antagonist was incubated in the absence of α,β-MeATP for 10 minutes. After antagonist preincubation, 800 nM α,β-MeATP and antagonist were co-administered to determine the inhibitory effect of the antagonist. One concentration of an antagonist was assessed against a single cell, with different concentrations of the antagonist applied to other cells on the 384 recording substrate. The control P2X3 current amplitude was taken from the peak current amplitude from the second agonist response prior to preincubation with antagonist. The peak P2X3 current amplitude in the presence of antagonist was used to calculate the inhibitory effect at each concentration of the antagonist according to the following equation: […]
Concentration-response curves were constructed from ten different concentrations with each concentration of antagonist tested on at least two individual cells. The concentration of the antagonist to inhibit P2X3 current by 50% (IC50) was determined by fitting the data with the following equation: […]
Where ‘a’ is minimum response, ‘b’ is maximum response, ‘c’ is IC50 and ‘d’ is Hill slope.
Representative compound of the present invention have been also tested for P2X2/3 receptor.
The same assay protocol was used for the P2X2/3 assay as the P2X3 assay with two modifications: 1) 10 μM ATP was used as the agonist; and 2) the mean current amplitude was measured seven seconds after the application of agonist.

The target of the next assay is T2, h P2X3 (Homo sapiens, UniProt P56373).
T2 sequence (P56373 1-397): T1 sequence (P56373 1-397)
The assay is described as follows: In vitro electrophysiology assay for P2X3 (automated whole-cell patch clamp, Sophion Qube). In kind it is cell-based. The settings on record: range of activity. The gist of the method: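 Whole-cell automated patch clamp at room temperature, cells held at −60 mV; after two 800 nM α,β-MeATP baseline responses, antagonist preincubated 10 min then co-applied with 800 nM α,β-MeATP. Inhibition of peak current vs second agonist response; IC50 from 10-concentration curves, one concentration per cell.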
Background: Patch clamp records ionic current or voltage across a cell membrane.

Setting [1] is: Table 6, inhibition of P2X3 current, agonist α,β-MeATP (800 nM).

Take `COc1cc(-c2ncc(C)s2)cc2c(NCc3nc(C)no3)ncnc12` [Example 113, 8-methoxy-N-[(3-methyl-1,2,4-oxadiazol-5-yl)methyl]-6-(5-methylthiazol-2-yl)quinazolin-4-amine]: the IC50 on h P2X2/3 is 316 to 3160 nM; at h P2X3 (setting [1]), under 316 nM; against h P2X3 (Table 7), under 316 nM.

`COc1cc(-c2ncc(C)cn2)cc2c(NCc3cccc(=O)[nH]3)ncnc12` [Example 152, 6-(((8-methoxy-6-(5-methylpyrimidin-2-yl)quinazolin-4-yl)amino)methyl)pyridin-2(1H)-one]: the IC50 at h P2X2/3 is 3160 to 31600 nM; on h P2X3 (setting [1]) it was under 316 nM; at h P2X3 (Table 7), under 316 nM.

In the case of `COc1cc(-c2ccc(C)cn2)cc2c(N[C@H](C)c3ccn(C)n3)ncnc12` [Example 159, 8-methoxy-N-[(1R)-1-(1-methylpyrazol-3-yl)ethyl]-6-(5-methyl-2-pyridyl)quinazolin-4-amine], the IC50 is 3160 to 31600 nM at h P2X2/3, under 316 nM on h P2X3 (setting [1]) and under 316 nM against h P2X3 (Table 7).

For `COc1cc(-n2cc(C)cn2)cc2c(N[C@H](C)c3ccc(C)nn3)ncnc12` [Example 99, (R)-8-methoxy-6-(4-methyl-1H-pyrazol-1-yl)-N-(1-(6-methylpyridazin-3-yl)ethyl)quinazolin-4-amine], the IC50 was 316 to 3160 nM on h P2X2/3, under 316 nM on h P2X3 (setting [1]) and under 316 nM at h P2X3 (Table 7).

In the case of `COc1cc(-c2ncc(C)cn2)cc2c(NCc3ccn(C)c(=O)c3)ncnc12` [Example 151, 4-(((8-methoxy-6-(5-methylpyrimidin-2-yl)quinazolin-4-yl)amino)methyl)-1-methylpyridin-2(1H)-one], the half-maximal inhibitory concentration (IC50) at h P2X2/3 was 316 to 3160 nM; at h P2X3 (setting [1]), under 316 nM; at h P2X3 (Table 7) it was under 316 nM.

As for `COc1cc(-c2ncc(C)cn2)cc2c(NC(C)c3nnc(C)o3)ncnc12` (single isomer, unassigned) [Example 129], the values for the IC50 on h P2X2/3, at h P2X3 (setting [1]) and against h P2X3 (Table 7) were 3160 to 31600 nM, under 316 nM and under 316 nM, respectively.

`COc1cc(-c2ncc(C)cn2)cc2c(NC(CO)c3nc(C)no3)ncnc12` (single isomer, unassigned) [Example 166]: the IC50 on h P2X2/3 is 3160 to 31600 nM; on h P2X3 (setting [1]), under 316 nM; against h P2X3 (Table 7), under 316 nM.

For the molecule `C[C@@H](Nc1ncnc2c(-c3ccnnc3)cc(-c3ccc(F)cc3)cc12)c1cnc(C(F)(F)F)nc1` [Example 24, (R)-6-(4-fluorophenyl)-8-(pyridazin-4-yl)-N-(1-(2-(trifluoromethyl)pyrimidin-5-yl)ethyl)quinazolin-4-amine], the IC50 at h P2X2/3 was 3160 to 31600 nM; at h P2X3 (setting [1]), under 316 nM; on h P2X3 (Table 7), under 316 nM.

In the case of `COc1cc(-c2ncc(C)s2)cc2c(N[C@H](C)c3ccc(C)nn3)ncnc12` [Example 5, (R)-8-methoxy-N-(1-(6-methylpyridazin-3-yl)ethyl)-6-(5-methylthiazol-2-yl)quinazolin-4-amine], the IC50 was 316 to 3160 nM on h P2X2/3, under 316 nM on h P2X3 (setting [1]) and under 316 nM at h P2X3 (Table 7).

Turning to `COc1cc(-c2ccc(C)cn2)cc2c(NCc3cc(C)no3)ncnc12` [Example 137, 8-methoxy-N-((3-methylisoxazol-5-yl)methyl)-6-(5-methylpyridin-2-yl)quinazolin-4-amine], the concentration for half-maximal inhibition (IC50) on h P2X2/3 is 3160 to 31600 nM; on h P2X3 (setting [1]) it was under 316 nM; against h P2X3 (Table 7) it was under 316 nM.

`COc1cc(-c2ccc(F)cn2)cc2c(NC(C)c3nnc(C)s3)ncnc12` (single isomer, unassigned) [Example 173, 6-(5-fluoropyridin-2-yl)-8-methoxy-N-(1-(5-methyl-1,3,4-thiadiazol-2-yl)ethyl)quinazolin-4-amine]: the IC50 was in the range of 3160 to 31600 nM on h P2X2/3, 316 to 3160 nM on h P2X3 (setting [1]) and 316 to 3160 nM at h P2X3 (Table 7).

With `COc1cc(-c2ccc(F)cn2)cc2c(NC(C)c3nc(C)no3)ncnc12` (stereo not drawn) [Example 2, 6-(5-fluoropyridin-2-yl)-8-methoxy-N-(1-(3-methyl-1,2,4-oxadiazol-5-yl)ethyl)quinazolin-4-amine], the results for the concentration for half-maximal inhibition (IC50) at h P2X2/3, at h P2X3 (setting [1]) and against h P2X3 (Table 7) were 3160 to 31600 nM, under 316 nM and under 316 nM, respectively.

With `COc1cc(-c2ncc(C)cn2)cc2c(N[C@H](C)c3noc(C)n3)ncnc12` [Example 7, 8-Methoxy-N-[(1R)-1-(5-methyl-1,2,4-oxadiazol-3-yl)ethyl]-6-(5-methylpyrimidin-2-yl)quinazolin-4-amine], the IC50 at h P2X2/3 lay in the range of 3160 to 31600 nM; on h P2X3 (setting [1]) it was 316 to 3160 nM; against h P2X3 (Table 7), 316 to 3160 nM.

Take `COc1cc(-c2ccc(C)cn2)cc2c(NCc3noc(C)n3)ncnc12` [Example 136, 8-methoxy-N-((5-methyl-1,2,4-oxadiazol-3-yl)methyl)-6-(5-methylpyridin-2-yl)quinazolin-4-amine]: the results for the concentration for half-maximal inhibition (IC50) on h P2X2/3, at h P2X3 (setting [1]) and at h P2X3 (Table 7) were 3160 to 31600 nM, 316 to 3160 nM and 316 to 3160 nM, respectively.

For the molecule `COc1cc(-c2ncc(C)cn2)cc2c(NCc3cnc(C(F)(F)F)nc3)ncnc12` [Example 145, 8-methoxy-6-(5-methylpyrimidin-2-yl)-N-[[2-(trifluoromethyl)pyrimidin-5-yl]methyl]quinazolin-4-amine], the IC50 at h P2X2/3 was 316 to 3160 nM; on h P2X3 (setting [1]) it was under 316 nM; on h P2X3 (Table 7) it was under 316 nM.

For `COc1cc(-c2ccc(F)cn2)cc2c(NCc3cnc(C(F)(F)F)nc3)ncnc12` [Example 146, 6-(5-fluoropyridin-2-yl)-8-methoxy-N-((2-(trifluoromethyl)pyrimidin-5-yl)methyl)quinazolin-4-amine], the half-inhibitory concentration (IC50) at h P2X2/3 was 3160 to 31600 nM; on h P2X3 (setting [1]), under 316 nM; at h P2X3 (Table 7), under 316 nM.

For the molecule `COc1cc(-c2ccc(F)cn2)cc2c(NC(C)c3ccc(C(F)(F)F)nn3)ncnc12` (single isomer, unassigned) [Example 169, 6-(5-fluoro-2-pyridyl)-8-methoxy-N-[1-[6-(trifluoromethyl)pyridazin-3-yl]ethyl]quinazolin-4-amine], the IC50 on h P2X2/3 is 3160 to 31600 nM; on h P2X3 (setting [1]), under 316 nM; against h P2X3 (Table 7) it was under 316 nM.

Regarding `COc1cc(-c2ncc(C)s2)cc2c(NCc3ccc(C(F)(F)F)cn3)ncnc12` [Example 116, 8-methoxy-6-(5-methylthiazol-2-yl)-N-((5-(trifluoromethyl)pyridin-2-yl)methyl)quinazolin-4-amine], the results for the IC50 on h P2X2/3, at h P2X3 (setting [1]) and against h P2X3 (Table 7) were 316 to 3160 nM, under 316 nM and under 316 nM, respectively.

`COc1cc(-c2ncc(C)cn2)cc2c(NC(C)c3nc(C)no3)ncnc12` (single isomer, unassigned) [Example 123, 8-Methoxy-N-[1-(3-methyl-1,2,4-oxadiazol-5-yl)ethyl]-6-(5-methylpyrimidin-2-yl)quinazolin-4-amine]: the IC50 at h P2X2/3 is 3160 to 31600 nM; at h P2X3 (setting [1]), under 316 nM; against h P2X3 (Table 7), under 316 nM.

For orientation: IC50 means the concentration at which inhibition is half-maximal.

The record behind these values is patent publication US12466820B2, “Amino quinazoline derivatives as P2X3 inhibitors” (CHIESI FARMACEUTICI S.p.A., priority 2019, dated 2025).
